Reference: PMC10731000, “Functional characterization of three G protein-coupled acetylcholine receptors in parasitic nematode Trichinella spiralis” (International Journal for Parasitology: Drugs and Drug …, 2023)
“Also recorded” adds a separate entry of the source. Structures can show the parent of a compound that is named as a salt.

Key:
[1] = target: T1, TsGAR-1 (Trichinella spiralis, UniProt A0A0V1C1R2); test: Aequorin calcium mobilization agonist assay in CHO-K1 cells expressing TsGAR-1; type: cell-based
Excerpt: (§1) T. spiralis GARs were heterologously expressed in CHO–K1 cells (Sigma) along with the aequorin reporter—with or without the wild-type human G protein alpha 15 subunit (Gα15(16)) (cDNA Resource Center, Bloomsburg University of Pennsylvania)—to observe activation of the receptor by monitoring bioluminescence triggered by the mobilization of intracellular calcium ([Offermanns and Simon, 1995]; [Park et al., 2002]). Therefore, there were two types of transient expression: i) TsGAR-1, -2, or -3/aequorin/Gα15(16); and ii) TsGAR-1, -2, or -3/aequorin. The use of Gα15(16) in the first assay is due to its highly efficient way of linking calcium mobilization signaling pathways to GPCRs that are preferentially coupling with Gi/o or Gs protein members ([Offermanns and Simon, 1995]).
(§2) For handling cell lines, all transfection details, and monitoring receptor activities, we followed the previously published study ([Šimo et al., 2011], [2013]; [Mateos-Hernández et al., 2020]). Briefly, CHO–K1 cells were kept in growth medium (Ham's F12 Media with 10% fetal bovine serum) until 70% of confluence was reached. FuGENE® HD Transfection Reagent (Promega) was then used to transfect the plasmid constructs. Prior to the assay, the cells were pre-equilibrated with coelenterazine h (Promega) for 3 h at room temperature. The assay was performed in opaque 96-well microplates (Nunc) using either Fluostar Omega (BMG Labtech) or GloMax® Plate Reader (Promega). In agonist assays, 50 μL of various doses of agonistic ligands were added to wells in triplicate, followed by injection of 50μL/∼15,000 of CHO–K1 cells. Immediately after the cell injections, luminescence values were monitored for 25 s and their integrated values over time were normalized to the largest positive control response in each plate (45 μM ACh) after background noise was subtracted. When performing the antagonist assay, cells were pre-incubated with different doses of antagonistic ligands for 5 min in RT (in a 96-well plate) and subsequently a 50 μL of 10 μM ACh solution was injected into the wells. The changes in luminescence were measured for 25 s immediately after injecting ACh, and time integrated values were normalized to the response of those wells in each plate that only contained cells with medium. A dose-response curve was plotted afterwards for each data set and half-maximum response values (EC50 or IC50) along the Hill coefficient (nH) were calculated using GraphPad Prism 8.0 (GraphPad Software). Two and three biological replicates were performed for the testing of T. spiralis GARs with or without the Gα15(16) and agonistic or antagonistic assay, respectively, with three technical replicates for each ligand. In terms of negative controls, a mock transfection was performed using empty pcDNA3.1 (+) plasmid, with an aequorin reporter and Gα15(16) subunit. To confirm the specificity of T. spiralis GAR-1, -2, and -3 affinity, we tested dopamine, octopamine and norepinephrine chemical agents.

[2] = target: T2, TsGAR-3 (Trichinella spiralis, UniProt E5S5F5); test: Aequorin calcium mobilization agonist assay in CHO-K1 cells expressing TsGAR-3; type: cell-based
Excerpt: as §1, §2

[3] = target: T3, TsGAR-2 (Trichinella spiralis, UniProt E5SAZ1); test: Aequorin calcium mobilization agonist assay in CHO-K1 cells expressing TsGAR-2; type: cell-based
Excerpt: as §1, §2

[4] = test system: C. elegans GAR-1; parameters: method as in Lee et al., 1999, Lee et al., 2000; conditions: ref Lee et al., 1999, Lee et al., 2000; cited from earlier work
[5] = test system: A. suum GAR-1; parameters: method as in Kimber et al., 2009; conditions: ref Kimber et al., 2009; cited from earlier work
[6] = target: T1, TsGAR-1; test: Aequorin antagonist assay (block of 10 μM ACh response) in CHO-K1 cells expressing TsGAR-1; type: cell-based; conditions: co-expressed with Gα15(16)
Excerpt: as §1
as §2, with “In terms of negative controls, a mock transfection was performed using empty pcDNA3.1 (+) plasmid, with an aequorin reporter and Gα15(16) subunit. To confirm the specificity of T. spiralis GAR-1, -2, and -3 affinity, we tested dopamine, octopamine and norepinephrine chemical agents.” left out

[7] = target: T2, TsGAR-3; test: Aequorin antagonist assay (block of 10 μM ACh response) in CHO-K1 cells expressing TsGAR-3; type: cell-based; conditions: for nH (Hill coefficient), antagonist, TsGAR-3 / antagonist effect on TsGAR-3 (in words): without Gα15(16)
Method: Therefore, there were two types of transient expression: i) TsGAR-1, -2, or -3/aequorin/Gα15(16); and ii) TsGAR-1, -2, or -3/aequorin.
as §2, with “Briefly,” for “For handling cell lines, all transfection details, and monitoring receptor activities, we followed the previously published study ([Šimo et al., 2011], [2013]; [Mateos-Hernández et al., 2020]). Briefly,”, “Immediately after the cell injections, luminescence values were monitored for 25 s and their integrated values over time were normalized to the largest positive control response in each plate (45 μM ACh) after background noise was subtracted.” left out

[8] = test system: D. melanogaster mAChR-B; parameters: method as in Collin et al., 2013; conditions: same expression system as this study; ref Collin et al., 2013; cited from earlier work
[9] = test system: T. castaneum mAChR-B; parameters: method as in Collin et al., 2013; conditions: same expression system as this study; ref Collin et al., 2013; cited from earlier work
[10] = target: T3, TsGAR-2; test: Aequorin antagonist assay (block of 10 μM ACh response) in CHO-K1 cells expressing TsGAR-2; type: cell-based; conditions: co-expressed with Gα15(16)
Excerpt: as §1, §2

T3 sequence (E5SAZ1 entry or part of it): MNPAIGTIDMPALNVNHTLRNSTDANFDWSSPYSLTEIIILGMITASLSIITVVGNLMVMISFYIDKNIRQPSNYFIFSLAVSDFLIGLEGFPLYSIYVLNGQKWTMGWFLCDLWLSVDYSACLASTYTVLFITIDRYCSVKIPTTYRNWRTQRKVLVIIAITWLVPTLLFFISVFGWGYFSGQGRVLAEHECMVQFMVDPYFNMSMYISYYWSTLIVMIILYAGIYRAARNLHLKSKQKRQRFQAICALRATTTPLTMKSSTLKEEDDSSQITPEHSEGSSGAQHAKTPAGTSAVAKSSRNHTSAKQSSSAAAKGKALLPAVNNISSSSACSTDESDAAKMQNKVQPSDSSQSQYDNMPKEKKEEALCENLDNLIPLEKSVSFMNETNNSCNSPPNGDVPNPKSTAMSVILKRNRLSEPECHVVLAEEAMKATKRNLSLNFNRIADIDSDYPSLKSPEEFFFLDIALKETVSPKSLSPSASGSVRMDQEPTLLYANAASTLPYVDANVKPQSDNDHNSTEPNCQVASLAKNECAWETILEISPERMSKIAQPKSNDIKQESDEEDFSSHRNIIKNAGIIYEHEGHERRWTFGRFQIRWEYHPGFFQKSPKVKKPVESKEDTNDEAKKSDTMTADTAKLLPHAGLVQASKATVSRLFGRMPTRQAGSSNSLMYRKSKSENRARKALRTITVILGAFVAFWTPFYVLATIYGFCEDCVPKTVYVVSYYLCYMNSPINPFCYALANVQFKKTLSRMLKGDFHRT
T1 sequence (A0A0V1C1R2 entry or part of it): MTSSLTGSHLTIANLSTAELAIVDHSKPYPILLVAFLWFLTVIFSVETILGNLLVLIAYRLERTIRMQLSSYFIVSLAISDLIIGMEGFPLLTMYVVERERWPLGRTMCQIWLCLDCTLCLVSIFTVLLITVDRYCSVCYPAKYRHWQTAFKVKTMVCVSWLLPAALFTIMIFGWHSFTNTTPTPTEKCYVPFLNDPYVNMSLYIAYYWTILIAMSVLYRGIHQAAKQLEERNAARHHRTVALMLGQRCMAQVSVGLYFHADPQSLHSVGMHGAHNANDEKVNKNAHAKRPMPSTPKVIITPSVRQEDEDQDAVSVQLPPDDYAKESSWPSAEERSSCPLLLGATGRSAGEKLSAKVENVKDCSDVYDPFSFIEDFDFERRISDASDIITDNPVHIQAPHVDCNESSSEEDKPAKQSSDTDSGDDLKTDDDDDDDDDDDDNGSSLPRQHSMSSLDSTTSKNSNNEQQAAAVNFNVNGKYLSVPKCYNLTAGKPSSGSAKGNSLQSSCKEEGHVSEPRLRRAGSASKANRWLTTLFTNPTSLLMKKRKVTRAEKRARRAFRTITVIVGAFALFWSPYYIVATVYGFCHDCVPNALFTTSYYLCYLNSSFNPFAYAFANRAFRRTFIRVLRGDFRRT
T2 sequence (E5S5F5 entry or part of it): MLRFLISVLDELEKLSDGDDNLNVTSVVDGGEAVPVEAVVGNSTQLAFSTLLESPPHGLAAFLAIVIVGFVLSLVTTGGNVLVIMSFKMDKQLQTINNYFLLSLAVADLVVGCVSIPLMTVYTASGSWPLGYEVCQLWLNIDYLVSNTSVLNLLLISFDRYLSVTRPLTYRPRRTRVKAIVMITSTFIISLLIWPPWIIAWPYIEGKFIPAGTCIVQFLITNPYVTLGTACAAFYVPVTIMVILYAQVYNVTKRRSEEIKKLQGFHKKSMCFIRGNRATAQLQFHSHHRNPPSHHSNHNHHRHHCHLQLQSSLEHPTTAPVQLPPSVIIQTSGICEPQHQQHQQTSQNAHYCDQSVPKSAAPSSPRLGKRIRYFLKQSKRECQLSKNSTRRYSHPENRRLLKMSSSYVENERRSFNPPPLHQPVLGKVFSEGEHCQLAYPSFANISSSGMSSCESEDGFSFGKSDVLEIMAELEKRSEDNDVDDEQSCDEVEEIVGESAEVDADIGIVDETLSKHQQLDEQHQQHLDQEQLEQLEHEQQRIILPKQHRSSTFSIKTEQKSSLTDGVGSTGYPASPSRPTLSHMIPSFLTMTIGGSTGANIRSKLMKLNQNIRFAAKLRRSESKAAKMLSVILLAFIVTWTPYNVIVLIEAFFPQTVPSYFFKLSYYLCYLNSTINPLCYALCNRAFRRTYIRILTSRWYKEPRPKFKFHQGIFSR

| SMILES | EC50 [1] | nH (Hill coefficient), agonist, TsGAR-1 ([1]; co-expressed with Gα15(16)) | EC50 [2] | nH (Hill coefficient), agonist, TsGAR-3 ([2]; without Gα15(16)) | EC50 [3] | nH (Hill coefficient), agonist, TsGAR-2 ([3]; co-expressed with Gα15(16)) | antagonist effect on C. elegans GAR-1 (in words) [4] | antagonist effect on A. suum GAR-1 (in words) [5] | antagonist effect on TsGAR-1 (in words) [6] | IC50 [7] | nH (Hill coefficient), antagonist, TsGAR-3 [7] | antagonist effect on TsGAR-3 (in words) [7] | antagonist effect on D. melanogaster mAChR-B (in words) [8] | antagonist effect on T. castaneum mAChR-B (in words) [9] | antagonist effect on TsGAR-2 (in words) [10] | agonist activity on TsGAR-1 (in words) ([1]; co-expressed with Gα15(16)) | agonist activity on A. suum GAR-1 (in words) [5] | agonist activity on TsGAR-3 (in words) ([2]; without Gα15(16)) | agonist activity on TsGAR-2 (in words) ([3]; co-expressed with Gα15(16)) |
| --- | --- | --- | --- | --- | --- | --- | --- | --- | --- | --- | --- | --- | --- | --- | --- | --- | --- | --- | --- |
| C[N+](C)(C)CCOC(N)=O [Carbachol, carbamoylcholine chloride] | 2050 ± 235 nM | 0.8693 | 1930 ± 256 nM | 0.9117 | 2670 ± 508 nM | 0.9531 | – | – | – | – | – | – | – | – | – | – | – | – | – |
| CN1[C@@H]2CC[C@H]1C[C@@H](OC(=O)C(CO)c1ccccc1)C2 (some centres unmarked) [Atropine, atropine] | – | – | – | – | – | – | effective in inhibiting; also recorded: effectively blocked | effective in inhibiting; also recorded: effectively blocked | not effective in blocking; also recorded: totally ineffective | 222 ± 42.7 nM | −0.8748 | effectively inhibited | remained unaffected | remained unaffected | not effective in blocking | – | – | – | – |
| CN1[C@@H]2C[C@@H](OC(=O)[C@H](CO)c3ccccc3)C[C@H]1[C@@H]1O[C@@H]12 [Scopolamine, (−)-scopolamine hydrobromide trihydrate] | – | – | – | – | – | – | – | – | not effective in blocking | 27.3 ± 6.3 nM | −1.151 | effectively inhibited | remained unaffected | remained unaffected | not effective in blocking | – | – | – | – |
| CC(C[N+](C)(C)C)OC(N)=O (centres unmarked) [Bethanechol, bethanechol chloride] | > 10000 nM | 0.9289 | > 10000 nM | 1.390 | > 10000 nM | 0.8738 | – | – | – | – | – | – | – | – | – | low potency | agonistic effect was shown | low potency | low potency |
